Data as given in ChEMBL document CHEMBL1201862, “PubChem BioAssay data set” (2004).
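Protocol summary: plate cells (96-well), add compound at 5 concentrations, incubate 48 h, interpolate endpoints linearly. GI50 marks 50% less growth.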 The source made the active and inactive calls. Rule as the data show it: active = GI50 up to about 1.1 µM and inactive = higher.

What was measured:
Assay in all cases: NCI tumour cell line growth inhibition, 48 h
MDA-MB-231 = system: MDA-MB-231
MDA-N = system: MDA-N
KM-20L2 = system: KM-20L2
A498 = system: A498
DLD-1 = system: DLD-1
DMS-273 = system: DMS-273
SNB-78 = system: SNB-78

Measured: GI50

Cc1cc(C)c(S(=O)(=O)N(CCCCCN)OCCCN)c(C)c1
inactive: MDA-MB-231 31.7 µM | MDA-N 16.7 µM

COc1ccc(N2C(Cl)C(=O)C2c2c[nH]c3ccccc23)cc1 (configuration not stated)
inactive: KM-20L2 > 100 µM

CC(=O)c1c(-c2ccco2)c(C#N)c(=S)n(C2OC(CO)C(O)C(O)C2O)c1C (configuration not stated)
inactive: MDA-MB-231 > 100 µM | MDA-N 92.3 µM

O=C(CCl)NNC1=Nc2ccc(Cl)cc2SC1
inactive: A498 20.6 µM | DLD-1 1.85 µM | DMS-273 2.88 µM | KM-20L2 4.3 µM | SNB-78 2.03 µM

CN(C(=O)c1ccccc1)c1ccc2c(c1)C(=O)c1ccccc1C2=O
inactive: DMS-273 > 100 µM | KM-20L2 > 100 µM

CCCCCn1cc2c3c(cccc31)C1C=C(C)CN(C)[C@@H]1C2.Cc1ccc(C(=O)OC(C(=O)O)C(OC(=O)c2ccc(C)cc2)C(=O)O)cc1 (configuration not stated)
inactive: A498 8.83 µM | DLD-1 6.12 µM | DMS-273 3.92 µM | KM-20L2 3.83 µM | SNB-78 13.7 µM

CC1(C(=O)O)CCC(C(=O)O)C(C)(C)O1 (configuration not stated)
inactive: MDA-N > 100 µM

N#C/C(=C\c1ccncc1)c1csc2ccccc12
inactive: A498 21.3 µM | DLD-1 28.3 µM | DMS-273 26.3 µM | KM-20L2 20 µM | SNB-78 23.8 µM

COc1cc(C2C(Cl)C(=O)N2NC(=O)c2ccccc2O)ccc1O (configuration not stated)
inactive: A498 45.9 µM | DLD-1 > 100 µM | DMS-273 > 100 µM | SNB-78 > 100 µM
